From PubChem BioAssay AID1963970 (Molecular Pharmacology Branch, DTP, NCI, 2024)

Tested on: 931267-113-T-J1-PDC multicell spheroid viability
Assay: Anticancer human tumor 931267-113-T-J1-PDC patient-derived colon adenocarcinoma cell line growth inhibition [PI3K]
Details: for IC50: curve of first compound; for viability, T/C: stronger effect = lower value
How it was run: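 Combination activity was assessed by viability in multicellular tumor spheroids carrying HUVEC and MSC components. Agents were tested with PI3K inhibitors from a Cmax-based top dose (or 10 microM) downward in half-log increments.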

[1] = second compound 0.0316 µM, first compound 0.0316 µM
[2] = second compound 0.0316 µM, first compound 0.1 µM
[3] = second compound 0.0316 µM, first compound 0.316 µM
[4] = second compound 0.0316 µM, first compound 1 µM
[5] = second compound 0.0316 µM, first compound 3.16 µM
[6] = second compound 0.0316 µM, first compound 10 µM
[7] = second compound 0.1 µM, first compound 0.0316 µM
[8] = second compound 0.1 µM, first compound 0.1 µM
[9] = second compound 0.1 µM, first compound 0.316 µM
[10] = second compound 0.1 µM, first compound 1 µM
[11] = second compound 0.1 µM, first compound 3.16 µM
[12] = second compound 0.1 µM, first compound 10 µM
[13] = second compound 0.316 µM, first compound 0.0316 µM
[14] = second compound 0.316 µM, first compound 0.1 µM
[15] = second compound 0.316 µM, first compound 0.316 µM
[16] = second compound 0.316 µM, first compound 1 µM
[17] = second compound 0.316 µM, first compound 3.16 µM
[18] = second compound 0.316 µM, first compound 10 µM
[19] = second compound 1 µM, first compound 0.0316 µM
[20] = second compound 1 µM, first compound 0.1 µM
[21] = second compound 1 µM, first compound 0.316 µM
[22] = second compound 1 µM, first compound 1 µM
[23] = second compound 1 µM, first compound 3.16 µM
[24] = second compound 1 µM, first compound 10 µM
[25] = second compound 0.00316 µM, first compound 0.0316 µM
[26] = second compound 0.00316 µM, first compound 0.1 µM
[27] = second compound 0.00316 µM, first compound 0.316 µM
[28] = second compound 0.00316 µM, first compound 1 µM
[29] = second compound 0.00316 µM, first compound 3.16 µM
[30] = second compound 0.00316 µM, first compound 10 µM
[31] = second compound 0.01 µM, first compound 0.0316 µM
[32] = second compound 0.01 µM, first compound 0.1 µM
[33] = second compound 0.01 µM, first compound 0.316 µM
[34] = second compound 0.01 µM, first compound 1 µM
[35] = second compound 0.01 µM, first compound 3.16 µM
[36] = second compound 0.01 µM, first compound 10 µM
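Note: viability read 7 days after compound addition.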

C#Cc1c(F)ccc2cc(O)cc(-c3ncc4c(N5CC6CCC(C5)N6)nc(OCC56CCCN5CC(F)C6)nc4c3F)c12 (stereo unspecified) + CC(Nc1ncnc2nc[nH]c12)c1cc2cccc(Cl)c2c(=O)n1-c1ccccc1
IC50 (second compound 0.0316 µM): 0.631 µM | IC50 (second compound 0.1 µM): 0.573 µM | IC50 (second compound 0.316 µM): 0.664 µM | IC50 (second compound 1 µM): 0.677 µM | IC50 (second compound 3.16 µM): 0.378 µM | IC50 (second compound 10 µM): 0.222 µM | viability, T/C [1]: 96.4% | viability, T/C [2]: 74% | viability, T/C [3]: 57.6% | viability, T/C [4]: 45.7% | viability, T/C [5]: 32.6% | viability, T/C [6]: 22.5% | viability, T/C [7]: 105% | viability, T/C [8]: 78.1% | viability, T/C [9]: 56.6% | viability, T/C [10]: 45.4% | viability, T/C [11]: 29.5% | viability, T/C [12]: 24.5% | viability, T/C [13]: 90.9% | viability, T/C [14]: 72.9% | viability, T/C [15]: 61.4% | viability, T/C [16]: 43.4% | viability, T/C [17]: 33.6% | viability, T/C [18]: 23.2% | viability, T/C [19]: 89.1% | viability, T/C [20]: 78.6% | viability, T/C [21]: 57.9% | viability, T/C [22]: 42.1% | viability, T/C [23]: 37.3% | viability, T/C [24]: 21.2% | viability, T/C (second compound 3.16 µM, first compound 0.0316 µM): 87.3% | viability, T/C (second compound 3.16 µM, first compound 0.1 µM): 70.3% | viability, T/C (second compound 3.16 µM, first compound 0.316 µM): 52.1% | viability, T/C (second compound 3.16 µM, first compound 1 µM): 36.1% | viability, T/C (second compound 3.16 µM, first compound 3.16 µM): 28.4% | viability, T/C (second compound 3.16 µM, first compound 10 µM): 17.6% | viability, T/C (second compound 10 µM, first compound 0.0316 µM): 91.1% | viability, T/C (second compound 10 µM, first compound 0.1 µM): 63.1% | viability, T/C (second compound 10 µM, first compound 0.316 µM): 45% | viability, T/C (second compound 10 µM, first compound 1 µM): 27.1% | viability, T/C (second compound 10 µM, first compound 3.16 µM): 22.7% | viability, T/C (second compound 10 µM, first compound 10 µM): 12%

CNC(=O)c1ccc(N2C(=S)N(c3ccc(C#N)c(C(F)(F)F)c3)C(=O)C2(C)C)cc1F + COc1c(OCCCN2CCOCC2)ccc2c3n(c(=NC(=O)c4cnc(N)nc4)nc12)CCN3
IC50 (second compound 0.00316 µM): > 10 µM | IC50 (second compound 0.01 µM): > 10 µM | IC50 (second compound 0.0316 µM): > 10 µM | IC50 (second compound 0.1 µM): > 10 µM | IC50 (second compound 0.316 µM): 1.56 µM | IC50 (second compound 1 µM): < 0.0316 µM | viability, T/C [25]: 109% | viability, T/C [26]: 107% | viability, T/C [27]: 99.3% | viability, T/C [28]: 101% | viability, T/C [29]: 104% | viability, T/C [30]: 104% | viability, T/C [31]: 105% | viability, T/C [32]: 93.5% | viability, T/C [33]: 102% | viability, T/C [34]: 92% | viability, T/C [35]: 100% | viability, T/C [36]: 94.2% | viability, T/C [1]: 85.2% | viability, T/C [2]: 80.7% | viability, T/C [3]: 85.7% | viability, T/C [4]: 86.8% | viability, T/C [5]: 93.2% | viability, T/C [6]: 74.4% | viability, T/C [7]: 70.8% | viability, T/C [8]: 68.5% | viability, T/C [9]: 75.7% | viability, T/C [10]: 68.5% | viability, T/C [11]: 69.1% | viability, T/C [12]: 57.8% | viability, T/C [13]: 51% | viability, T/C [14]: 55.9% | viability, T/C [15]: 53.9% | viability, T/C [16]: 52% | viability, T/C [17]: 46.4% | viability, T/C [18]: 40.8% | viability, T/C [19]: 36.4% | viability, T/C [20]: 38.4% | viability, T/C [21]: 39.3% | viability, T/C [22]: 34.2% | viability, T/C [23]: 36.1% | viability, T/C [24]: 30.1%

Cn1ncc(Cl)c1-c1cc(C(=O)NC(CN)Cc2cccc(F)c2)sc1Cl (stereo unspecified) + CC(Nc1ccc2c(c1)OCCn1cc(N3C(=O)OCC3C(F)F)nc1-2)C(N)=O
IC50 (second compound 0.00316 µM): 5.16 µM | IC50 (second compound 0.01 µM): 5.26 µM | IC50 (second compound 0.0316 µM): 5.05 µM | IC50 (second compound 0.1 µM): 3.9 µM | IC50 (second compound 0.316 µM): 4.09 µM | IC50 (second compound 1 µM): 3.51 µM | viability, T/C [25]: 94.7% | viability, T/C [26]: 102% | viability, T/C [27]: 85.5% | viability, T/C [28]: 88.3% | viability, T/C [29]: 71.1% | viability, T/C [30]: 22.8% | viability, T/C [31]: 98.3% | viability, T/C [32]: 90.7% | viability, T/C [33]: 91% | viability, T/C [34]: 79.2% | viability, T/C [35]: 70.9% | viability, T/C [36]: 27.6% | viability, T/C [1]: 103% | viability, T/C [2]: 89.2% | viability, T/C [3]: 94.8% | viability, T/C [4]: 86.3% | viability, T/C [5]: 66.1% | viability, T/C [6]: 25.9% | viability, T/C [7]: 110% | viability, T/C [8]: 92.6% | viability, T/C [9]: 92.5% | viability, T/C [10]: 75.1% | viability, T/C [11]: 61.1% | viability, T/C [12]: 20.3% | viability, T/C [13]: 80.8% | viability, T/C [14]: 94.4% | viability, T/C [15]: 76.4% | viability, T/C [16]: 73.2% | viability, T/C [17]: 60.1% | viability, T/C [18]: 20.9% | viability, T/C [19]: 82% | viability, T/C [20]: 70.7% | viability, T/C [21]: 80.7% | viability, T/C [22]: 63.8% | viability, T/C [23]: 54.7% | viability, T/C [24]: 21.4%
